“And” between values parts separate entries of the source, which are not always exact repeats. Equal values may be shown once.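 Five compound concentrations were applied to cells in 96-well plates for 48 hours; endpoints were derived by simple linear interpolation of the resulting dose-response curve. At the GI50, growth is halved.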 The source made the active and inactive calls. Rule as the data show it: active = GI50 up to about 1.1 µM and inactive = higher.
Key:
Assay in all cases: growth of human tumour cells (NCI), 48 h
A549 = tested on: A549
ACHN = tested on: ACHN
CAKI-1 = tested on: CAKI-1
HCT-15 = tested on: HCT-15
HOP-62 = tested on: HOP-62
IGROV-1 = tested on: IGROV-1
MCF7 = tested on: MCF7
MDA-MB-231 = tested on: MDA-MB-231
MOLT-4 = tested on: MOLT-4
Malme-3M = tested on: Malme-3M
NCI-H226 = tested on: NCI-H226
OVCAR-5 = tested on: OVCAR-5
RPMI-8226 = tested on: RPMI-8226
SF-539 = tested on: SF-539
SK-MEL-5 = tested on: SK-MEL-5
SR = tested on: SR
TK-10 = tested on: TK-10
U-251 = tested on: U-251
UACC-62 = tested on: UACC-62
SNB-75 = tested on: SNB-75

Q: With `CC(C)(CN1CCCCC1)C(=O)CC(SCCS(=O)(=O)O)c1ccc(Cl)c(Cl)c1` (stereo not given) as the compound, how does the GI50 (A549) read?
A: Its GI50 is 5.98 µM (inactive).

Q: And the GI50 (ACHN)?
A: Its GI50 is 3.29 µM (inactive).

Q: What about the GI50 (CAKI-1) of the same compound?
A: Its GI50 is 2.97 µM (inactive).

Q: And the GI50 (HCT-15)?
A: The GI50 was 2.07 µM.

Q: And the GI50 (HOP-62)?
A: The GI50 was 6.47 µM (inactive).

Q: And the GI50 (IGROV-1)?
A: The GI50 was 4.4 µM (inactive).

Q: What about the GI50 (MCF7) of the same compound?
A: Its GI50 is 3.46 µM (inactive).

Q: What about the GI50 (MDA-MB-231) of the same compound?
A: The GI50 was 2.08 µM (inactive).

Q: And the GI50 (MOLT-4)?
A: The GI50 was 3.61 µM (inactive).

Q: What about the GI50 (Malme-3M) of the same compound?
A: The GI50 was 4.1 µM (inactive).

Q: What about the GI50 (NCI-H226) of the same compound?
A: The GI50 was 20 µM (inactive).

Q: And the GI50 (OVCAR-5)?
A: Its GI50 is 3.78 µM (inactive).

Q: And the GI50 (RPMI-8226)?
A: The GI50 was 4.01 µM (inactive).

Q: What about the GI50 (SF-539) of the same compound?
A: The GI50 was 2.65 µM (inactive).

Q: What about the GI50 (SK-MEL-5) of the same compound?
A: The GI50 was 8.73 µM (inactive).

Q: What about the GI50 (SR) of the same compound?
A: Its GI50 is 3.1 µM (inactive).

Q: And the GI50 (TK-10)?
A: The GI50 was 5.46 µM (inactive).

Q: What about the GI50 (U-251) of the same compound?
A: Its GI50 is 7.13 µM (inactive).

Q: And the GI50 (UACC-62)?
A: Its GI50 is 3.13 µM (inactive).

Q: `CC1(C)C(=O)N(O)C(C)(C)N1N=O` was tested. Which GI50 (A549) did it give?
A: Its GI50 is > 10 µM (inactive).

Q: What about the GI50 (ACHN) of the same compound?
A: The GI50 was > 10 µM (inactive).

Q: What about the GI50 (CAKI-1) of the same compound?
A: The GI50 was > 10 µM (inactive).

Q: And the GI50 (HCT-15)?
A: The GI50 was greater than 10 µM.

Q: What about the GI50 (HOP-62) of the same compound?
A: Its GI50 is > 10 µM (inactive).

Q: And the GI50 (MCF7)?
A: The GI50 was > 10 µM (inactive).

Q: And the GI50 (MDA-MB-231)?
A: The GI50 was > 10 µM (inactive).

Q: And the GI50 (MOLT-4)?
A: The GI50 was > 10 µM (inactive).

Q: What about the GI50 (Malme-3M) of the same compound?
A: The GI50 was > 10 µM (inactive).

Q: What about the GI50 (NCI-H226) of the same compound?
A: The GI50 was > 10 µM (inactive).

Q: And the GI50 (OVCAR-5)?
A: Its GI50 is > 10 µM (inactive).

Q: And the GI50 (RPMI-8226)?
A: The GI50 was 1.89 µM (inactive).

Q: And the GI50 (SR)?
A: The GI50 was > 10 µM (inactive).

Q: And the GI50 (TK-10)?
A: Its GI50 is > 10 µM (inactive).

Q: What about the GI50 (U-251) of the same compound?
A: The GI50 was > 10 µM (inactive).

Q: `NC(CC(O)(c1ccccc1)c1ccccc1)c1ccccc1S` (stereo not given) was tested. Which GI50 (A549) did it give?
A: Its GI50 is 14.7 µM (inactive).

Q: And the GI50 (ACHN)?
A: Its GI50 is 13.1 µM (inactive).

Q: What about the GI50 (HCT-15) of the same compound?
A: Its GI50 is 15.2 µM.

Q: What about the GI50 (HOP-62) of the same compound?
A: Its GI50 is 15.7 µM (inactive).

Q: And the GI50 (IGROV-1)?
A: Its GI50 is > 10 µM (inactive).

Q: What about the GI50 (MCF7) of the same compound?
A: The GI50 was 15.2 µM (inactive).

Q: What about the GI50 (MDA-MB-231) of the same compound?
A: The GI50 was 17.1 µM (inactive).

Q: What about the GI50 (MOLT-4) of the same compound?
A: Its GI50 is 21.4 µM (inactive).

Q: And the GI50 (Malme-3M)?
A: Its GI50 is 25.7 µM (inactive).

Q: What about the GI50 (NCI-H226) of the same compound?
A: The GI50 was 15 µM (inactive).

Q: What about the GI50 (OVCAR-5) of the same compound?
A: The GI50 was 15.9 µM (inactive).

Q: What about the GI50 (RPMI-8226) of the same compound?
A: The GI50 was 22.2 µM (inactive).

Q: What about the GI50 (SK-MEL-5) of the same compound?
A: Its GI50 is 13 µM (inactive).

Q: And the GI50 (SNB-75)?
A: The GI50 was 15 µM (inactive).

Q: What about the GI50 (SR) of the same compound?
A: Its GI50 is 23.6 µM (inactive).

Q: What about the GI50 (TK-10) of the same compound?
A: Its GI50 is 15.7 µM (inactive).

Q: And the GI50 (U-251)?
A: Its GI50 is 15.1 µM (inactive).

Q: What about the GI50 (UACC-62) of the same compound?
A: Its GI50 is 15.5 µM (inactive).

Q: How did the GI50 (A549) turn out when `CC1=CC(=O)CC2(C)CCC(C(C)CC(=O)CC(C)C)CC12OO` (stereo not given) was run?
A: The GI50 was 16.7 µM (inactive) and 15.4 µM (inactive).

Q: What about the GI50 (ACHN) of the same compound?
A: Its GI50 is 17.6 µM (inactive) and 17.1 µM (inactive).

Q: What about the GI50 (CAKI-1) of the same compound?
A: The GI50 was 19.3 µM (inactive).

Q: What about the GI50 (IGROV-1) of the same compound?
A: Its GI50 is 15 µM (inactive) and 20 µM (inactive).

Q: And the GI50 (MCF7)?
A: Its GI50 is 16.9 µM (inactive) and 17.2 µM (inactive).

Q: And the GI50 (MDA-MB-231)?
A: Its GI50 is 15.1 µM (inactive) and 18.5 µM (inactive).

Q: And the GI50 (MOLT-4)?
A: The GI50 was 14.8 µM (inactive) and 15.8 µM (inactive).

Q: And the GI50 (Malme-3M)?
A: The GI50 was 29.8 µM (inactive) and 16.7 µM (inactive).

Q: What about the GI50 (NCI-H226) of the same compound?
A: Its GI50 is 18.3 µM (inactive) and 18.7 µM (inactive).

Q: And the GI50 (OVCAR-5)?
A: The GI50 was 19.9 µM (inactive) and 19.4 µM (inactive).

Q: What about the GI50 (RPMI-8226) of the same compound?
A: The GI50 was 16.6 µM (inactive) and 12.5 µM (inactive).

Q: And the GI50 (SF-539)?
A: Its GI50 is 16.4 µM (inactive) and 15.2 µM (inactive).

Q: What about the GI50 (SK-MEL-5) of the same compound?
A: The GI50 was 15.7 µM (inactive) and 21 µM (inactive).

Q: And the GI50 (SR)?
A: Its GI50 is 18.5 µM (inactive) and 20.6 µM (inactive).

Q: What about the GI50 (TK-10) of the same compound?
A: Its GI50 is 19.3 µM (inactive) and 18.7 µM (inactive).

Q: And the GI50 (U-251)?
A: The GI50 was 19 µM (inactive) and 17.6 µM (inactive).

Q: And the GI50 (UACC-62)?
A: Its GI50 is 20.8 µM (inactive) and 17.6 µM (inactive).

Q: How did the GI50 (A549) turn out when `O=C(n1c(=O)n(-c2ccc(Cl)cc2)c(=O)n1C(=O)C(Cl)(Cl)Cl)C(Cl)(Cl)Cl` was run?
A: Its GI50 is > 100 µM (inactive).

Q: And the GI50 (ACHN)?
A: Its GI50 is 12.7 µM (inactive).

Q: What about the GI50 (CAKI-1) of the same compound?
A: Its GI50 is > 100 µM (inactive).

Q: And the GI50 (HCT-15)?
A: The GI50 was greater than 10 µM.

Q: What about the GI50 (HOP-62) of the same compound?
A: The GI50 was > 100 µM (inactive).

Q: And the GI50 (IGROV-1)?
A: The GI50 was > 100 µM (inactive).

Q: And the GI50 (MCF7)?
A: The GI50 was > 100 µM (inactive).

Q: And the GI50 (MDA-MB-231)?
A: The GI50 was 7.67 µM (inactive).

Q: And the GI50 (MOLT-4)?
A: Its GI50 is > 100 µM (inactive).

Q: And the GI50 (Malme-3M)?
A: Its GI50 is > 100 µM (inactive).

Q: What about the GI50 (OVCAR-5) of the same compound?
A: Its GI50 is > 10 µM (inactive).

Q: What about the GI50 (RPMI-8226) of the same compound?
A: The GI50 was > 100 µM (inactive).

Q: What about the GI50 (SF-539) of the same compound?
A: Its GI50 is > 100 µM (inactive).

Q: And the GI50 (SK-MEL-5)?
A: The GI50 was > 100 µM (inactive).

Q: And the GI50 (SR)?
A: Its GI50 is > 100 µM (inactive).

Q: And the GI50 (TK-10)?
A: The GI50 was > 100 µM (inactive).

Q: What about the GI50 (U-251) of the same compound?
A: Its GI50 is > 100 µM (inactive).

Q: And the GI50 (UACC-62)?
A: Its GI50 is > 100 µM (inactive).

Q: Which results are given for `O=C(Sc1n[nH]c(=O)[nH]c1=O)c1cccc2nc3ccccc3nc12`?
A: GI50 (A549): 4.05 µM (inactive); GI50 (ACHN): 30.2 µM (inactive); GI50 (CAKI-1): 78.3 µM (inactive); GI50 (HCT-15): 26.7 µM; GI50 (IGROV-1): > 100 µM (inactive); GI50 (MCF7): 7.67 µM (inactive); GI50 (MDA-MB-231): > 100 µM (inactive); GI50 (MOLT-4): > 100 µM (inactive); GI50 (Malme-3M): 5.64 µM (inactive); GI50 (NCI-H226): 34.4 µM (inactive); GI50 (OVCAR-5): > 100 µM (inactive); GI50 (RPMI-8226): 78.5 µM (inactive); GI50 (SF-539): 35.6 µM (inactive); GI50 (SK-MEL-5): 3.41 µM (inactive); GI50 (SR): > 100 µM (inactive); GI50 (TK-10): > 100 µM (inactive); GI50 (U-251): > 100 µM (inactive); GI50 (UACC-62): 38.8 µM (inactive)

Reference: ChEMBL document CHEMBL1201862, “PubChem BioAssay data set” (2004)
